What was measured:
[1] = molecular target: Hepatocyte growth factor receptor (Homo sapiens, UniProt P08581); assay: Inhibition of Met kinase
[2] = Antiproliferative activity against human GTL16 cells; assay type: functional, cell-based; details: GTL 16
Cytochrome P450 3A4 = Cytochrome P450 3A4 (Homo sapiens, UniProt P08684); assay: Inhibition of human CYP3A4; assay type: ADME
Liver microsomes = assay: Metabolic stability in human liver microsomes at 3 uM after 10 mins; assay type: ADME, Microsome
[3] = Metabolic stability in mouse liver microsomes at 3 uM after 10 mins; assay type: ADME, Microsome
[4] = Cmax in mouse at 50 mg/kg, po; assay type: ADME, organism-based; parameters: dose 50 mg/kg, route oral; details: in vivo
[5] = Tmax in mouse at 50 mg/kg, po; assay type: ADME, organism-based; parameters: dose 50 mg/kg, route oral; details: in vivo
[6] = AUC (0 to 8 hrs) in mouse at 50 mg/kg, po; assay type: ADME, organism-based; parameters: time < 8 hr, dose 50 mg/kg, route oral; details: plasma
[7] = Antitumor activity in human GTL16 cells xenografted athymic mouse 50 mg/kg, po daily once for 14 days; assay type: functional; details: GTL 16, 336 h, read-out: TGI
[8] = Protein binding in mouse plasma; assay type: ADME, cell-free; details: read-out: PPB (converted)
[9] = AUC (0 to 4 hrs) in mouse at 50 mg/kg, po; assay type: ADME, organism-based; parameters: time < 4 hr, dose 50 mg/kg, route oral; details: plasma
[10] = Antitumor activity in human GTL16 cells xenografted athymic mouse 100 mg/kg, po daily once for 14 days; assay type: functional; details: GTL 16, 336 h, read-out: TGI
[11] = Antitumor activity in human GTL16 cells xenografted athymic mouse 25 mg/kg, po daily once for 14 days; assay type: functional; details: GTL 16, 336 h, read-out: TGI
[12] = Antitumor activity in human GTL16 cells xenografted athymic mouse 75 mg/kg, po daily once for 14 days; assay type: functional; details: GTL 16, 336 h, read-out: TGI
[13] = Antitumor activity in human GTL16 cells xenografted athymic mouse 125 mg/kg, po daily once for 14 days; assay type: functional; details: GTL 16, 336 h, read-out: TGI

Hepatocyte growth factor receptor, sequence (P08581 whole entry): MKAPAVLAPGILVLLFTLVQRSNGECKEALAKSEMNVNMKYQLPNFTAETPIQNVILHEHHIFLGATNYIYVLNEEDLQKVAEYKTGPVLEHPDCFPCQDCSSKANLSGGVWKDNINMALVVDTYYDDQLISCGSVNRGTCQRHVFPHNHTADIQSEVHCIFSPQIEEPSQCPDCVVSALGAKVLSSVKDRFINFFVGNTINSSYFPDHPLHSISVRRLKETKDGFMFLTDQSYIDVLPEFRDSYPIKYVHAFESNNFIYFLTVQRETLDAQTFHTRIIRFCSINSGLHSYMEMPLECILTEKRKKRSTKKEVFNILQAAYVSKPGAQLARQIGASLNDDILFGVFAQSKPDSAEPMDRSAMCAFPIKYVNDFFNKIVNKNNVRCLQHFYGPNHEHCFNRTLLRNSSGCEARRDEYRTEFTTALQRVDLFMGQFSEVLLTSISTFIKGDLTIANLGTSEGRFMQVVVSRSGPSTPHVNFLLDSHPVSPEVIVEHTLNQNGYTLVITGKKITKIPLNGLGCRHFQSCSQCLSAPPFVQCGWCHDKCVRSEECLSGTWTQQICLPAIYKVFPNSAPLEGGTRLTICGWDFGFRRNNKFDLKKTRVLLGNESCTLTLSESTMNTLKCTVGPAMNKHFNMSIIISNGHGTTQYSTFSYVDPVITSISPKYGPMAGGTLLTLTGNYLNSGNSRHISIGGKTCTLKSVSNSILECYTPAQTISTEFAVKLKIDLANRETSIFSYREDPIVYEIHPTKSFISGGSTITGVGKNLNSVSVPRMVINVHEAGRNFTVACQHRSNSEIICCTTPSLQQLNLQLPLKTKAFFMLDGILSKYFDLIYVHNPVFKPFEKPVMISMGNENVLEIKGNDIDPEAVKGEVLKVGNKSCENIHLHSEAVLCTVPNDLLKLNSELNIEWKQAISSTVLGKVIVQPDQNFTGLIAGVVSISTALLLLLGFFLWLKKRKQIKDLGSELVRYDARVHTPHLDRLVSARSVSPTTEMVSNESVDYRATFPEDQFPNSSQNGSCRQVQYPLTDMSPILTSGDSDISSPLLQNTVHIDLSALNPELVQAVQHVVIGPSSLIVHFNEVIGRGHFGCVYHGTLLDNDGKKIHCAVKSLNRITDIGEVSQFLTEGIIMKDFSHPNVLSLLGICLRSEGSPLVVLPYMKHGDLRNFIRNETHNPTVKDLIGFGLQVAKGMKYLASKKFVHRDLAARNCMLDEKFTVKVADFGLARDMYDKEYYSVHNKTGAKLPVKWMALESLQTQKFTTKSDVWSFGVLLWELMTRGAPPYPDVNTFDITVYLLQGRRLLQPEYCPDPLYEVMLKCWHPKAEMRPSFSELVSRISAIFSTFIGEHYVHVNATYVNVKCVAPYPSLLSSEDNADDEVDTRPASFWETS
Cytochrome P450 3A4, sequence (P08684 whole entry): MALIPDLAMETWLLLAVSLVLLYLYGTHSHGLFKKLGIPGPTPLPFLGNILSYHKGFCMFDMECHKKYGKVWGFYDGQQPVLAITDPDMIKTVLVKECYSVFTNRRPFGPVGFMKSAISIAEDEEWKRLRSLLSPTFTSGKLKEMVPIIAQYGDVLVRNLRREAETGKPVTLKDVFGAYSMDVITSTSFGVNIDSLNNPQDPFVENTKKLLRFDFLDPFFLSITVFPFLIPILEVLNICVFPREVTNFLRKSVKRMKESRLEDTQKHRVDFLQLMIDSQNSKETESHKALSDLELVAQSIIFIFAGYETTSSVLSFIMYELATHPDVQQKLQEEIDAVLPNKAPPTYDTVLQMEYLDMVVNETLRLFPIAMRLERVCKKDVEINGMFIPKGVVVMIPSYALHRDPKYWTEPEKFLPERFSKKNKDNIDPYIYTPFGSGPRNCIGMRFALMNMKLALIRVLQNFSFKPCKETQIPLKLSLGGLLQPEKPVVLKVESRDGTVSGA

## Nc1nccc(Oc2ccc(NC(=O)NC(=O)Cc3ccc(F)cc3)cc2F)c1C#Cc1ccccn1
[1]
  IC50: 5 nM
[2]
  IC50: 40 nM
Cytochrome P450 3A4
  IC50: 37000 nM
Liver microsomes
  Stability: 0 nmol/min/mg
[3]
  Rate of metabolism: 0.042 nmol/min/mg
[4]
  Cmax: 16 µM
[5]
  Tmax: 4 h
[6]
  AUC(0-t) at 8 h: 85 µM·h
[7]
  inhibition in vivo at 50 mg/kg: < 50%
[8]
  fraction unbound: 0.0002

## O=C(Cc1ccc(F)cc1)NC(=O)Nc1ccc(Oc2ccnc3[nH]ccc23)c(F)c1
[1]
  IC50: 110 nM
[2]
  IC50: 150 nM
Liver microsomes
  Stability: 0.015 nmol/min/mg
[3]
  Rate of metabolism: 0.035 nmol/min/mg
[4]
  Cmax: 2.4 µM
[5]
  Tmax: 4 h
[9]
  AUC(0-t) at 4 h: 6 µM·h

## Nc1nc(-c2c[nH]c3nccc(Oc4ccc(NC(=O)NC(=O)Cc5ccc(F)cc5)cc4F)c23)cs1
[1]
  IC50: 7 nM
[2]
  IC50: 30 nM

## O=C(Cc1ccc(F)cc1)NC(=O)Nc1ccc(Oc2ccnc3[nH]cc(CO)c23)c(F)c1
[1]
  IC50: 4 nM
[2]
  IC50: 180 nM

## COC(=O)c1c[nH]c2nccc(Oc3ccc(NC(=O)NC(=O)Cc4ccc(F)cc4)cc3F)c12
[1]
  IC50: 5 nM
[2]
  IC50: 180 nM

## Nc1cc(Oc2ccc(NC(=O)CC(=O)Nc3ccc(F)cc3)cc2F)ccn1
[1]
  IC50: 100 nM
[2]
  IC50: 1490 nM

## Nc1nccc(Oc2ccc(NC(=O)NC(=O)Cc3ccc(F)cc3)cc2F)c1C#CCO
[1]
  IC50: 3 nM
[2]
  IC50: 30 nM
Cytochrome P450 3A4
  IC50: 700 nM

## O=C(Cc1ccc(F)cc1)NC(=O)Nc1ccc(Oc2ccnc3[nH]cc(C(=O)NCc4cccnc4)c23)c(F)c1
[1]
  IC50: 11 nM
[2]
  IC50: 650 nM

## O=C(Cc1ccc(F)cc1)NC(=O)Nc1ccc(Oc2ccnc3[nH]cc(C(=O)CN4CCC(O)C4)c23)c(F)c1 (stereo not drawn)
[1]
  IC50: 19 nM
[2]
  IC50: 1470 nM

## CN(C)CC(=O)c1c[nH]c2nccc(Oc3ccc(NC(=O)NC(=O)Cc4ccc(F)cc4)cc3F)c12
[1]
  IC50: 44 nM
[2]
  IC50: 1050 nM

## NCC#Cc1c(Oc2ccc(NC(=O)NC(=O)Cc3ccc(F)cc3)cc2F)ccnc1N
[1]
  IC50: 5 nM
[2]
  IC50: 250 nM
Cytochrome P450 3A4
  IC50: 1800 nM

## CN1CCN(CC(=O)c2c[nH]c3nccc(Oc4ccc(NC(=O)NC(=O)Cc5ccc(F)cc5)cc4F)c23)CC1
[1]
  IC50: 11 nM
[2]
  IC50: 2220 nM

## O=C(Cc1ccc(F)cc1)NC(=O)Nc1ccc(Oc2ccnc3[nH]c(-c4cccnc4)cc23)c(F)c1
[1]
  IC50: 2 nM
[2]
  IC50: 30 nM
Liver microsomes
  Stability: 0.016 nmol/min/mg
[3]
  Rate of metabolism: 0.036 nmol/min/mg
[4]
  Cmax: 2.1 µM
[5]
  Tmax: 4 h
[6]
  AUC(0-t) at 8 h: 11.4 µM·h

## C#Cc1c(Oc2ccc(NC(=O)NC(=O)Cc3ccc(F)cc3)cc2F)ccnc1N
[1]
  IC50: 2 nM
[2]
  IC50: 40 nM
Cytochrome P450 3A4
  IC50: 800 nM

## O=C(Cc1ccc(F)cc1)NC(=O)Nc1ccc(Oc2ccnc3[nH]cc(-c4cccnc4)c23)c(F)c1
[1]
  IC50: 2 nM
[2]
  IC50: 20 nM
Liver microsomes
  Stability: 0.038 nmol/min/mg
[3]
  Rate of metabolism: 0.049 nmol/min/mg
[4]
  Cmax: 6 µM
[5]
  Tmax: 4 h
[6]
  AUC(0-t) at 8 h: 34 µM·h
[7]
  inhibition in vivo at 50 mg/kg: 67%
[10]
  inhibition in vivo at 100 mg/kg: 88%

## O=C(CC(=O)Nc1ccc(Oc2ccnc3[nH]ccc23)c(F)c1)Nc1ccc(F)cc1
[1]
  IC50: 64 nM
[2]
  IC50: 1060 nM

## Nc1cc(Oc2ccc(NC(=O)NC(=O)Cc3ccc(F)cc3)cc2F)ccn1
[1]
  IC50: 35 nM
[2]
  IC50: 290 nM
Liver microsomes
  Stability: 0 nmol/min/mg
[3]
  Rate of metabolism: 0.018 nmol/min/mg
[4]
  Cmax: 10.5 µM
[5]
  Tmax: 4 h
[9]
  AUC(0-t) at 4 h: 33 µM·h
[11]
  inhibition in vivo at 25 mg/kg: < 50%
[12]
  inhibition in vivo at 75 mg/kg: 80%
[13]
  inhibition in vivo at 125 mg/kg: 98%

## CN(C)CC#Cc1c(Oc2ccc(NC(=O)NC(=O)Cc3ccc(F)cc3)cc2F)ccnc1N
[1]
  IC50: 4 nM
[2]
  IC50: 220 nM
Cytochrome P450 3A4
  IC50: 2700 nM

From ChEMBL document CHEMBL1150388, “Discovery of orally active pyrrolopyridine- and aminopyridine-based Met kinase inhibitors” (Bioorg Med Chem Lett, 2008)
